# In patent US4550186A, “Binuclear copper (II) carboxylates formed from amine-carboxyboranes” (Duke University, priority 1983, dated 1985):
# Key:
# [1] = tested on: Mitochondrial Citrate Exchange; experiment: In vitro liver enzyme study: mitochondrial citrate exchange; format: biochemical, mouse; conditions: in vitro CF1 liver, 10 min
# Protocol: In vitro enzymatic studies were determined using 10% homogenates of CF1 male mouse liver with 50-200 μM of test drugs. In vivo enzymatic studies were determined using 10% homogenates of liver from CF1 male mice obtained after administering the agents for 16 days at a dose ranging from 2.5-20 mg/kg/day intraperitoneally. The liver homogenates for both in vitro and in vivo studies were prepared in 0.25M sucrose and 0.001M (ethylenedinitrilo)tetraacetic acid. Acetyl coenzyme A synthetase and adenosine triphosphate dependent citrate lyase activities were determined spectrophotometrically at 540 nm as the hydroxylamate of acetyl coenzyme A formed after 30 min at 37° C. Mitochondrial citrate exchange was determined by the procedure of Robinson et al [Eur. J. Biochem., 216, 63 (1970)] using ^14 C-sodium bicarbonate (41 mCi/mmol) incorporated into mitochondrial ^14 C-citrate after isolating rat mitochondria (9000 g×10 min) from the homogenates. The exchanges of the ^14 C-citrate were determined after incubating the mitochondrial fraction which was loaded with labeled citrate and test drugs for 10 min. Then the radioactivity was measured in the mitochondrial and supernantant fractions in scintillation fluid and expressed as a percentage. Cholesterol side chain oxidation was determined by the method of Kritchevsky and Tepper [Artherosclerosis, 18, 93 (1973)] using (26-^14 C) cholesterol (50 mCi/mmol) and mitochondria isolated from rat liver homogenates. […] Fatty acid synthetase activity was determined by the method of Brady et al [J. Biol. Chem., 235, 3093 (1960)] using [2-^14 C] malonyl-coenzyme A (37.5 mCi/mmol) which was incorporated into newly synthesized fatty acids that were extracted with ether and counted. Acyl transferase activity was determined with glycerol-3phosphate [L-2-^3 H(N)] […] HCl and counted. Phosphatidate phosphohydrolase activity was measured as the inorganic phosphate released after 30 min from phosphatidic acid by the method of Mavis et al [J. Lipid Res., 19, 467 (1978)]. […]
# [2] = molecular target: T1, dihydrofolate reductase (Mus musculus, UniProt P00375); experiment: In vitro dihydrofolate reductase activity; format: biochemical; conditions: 0.25 to 1.0 mM
# T1 sequence (P00375 1-187): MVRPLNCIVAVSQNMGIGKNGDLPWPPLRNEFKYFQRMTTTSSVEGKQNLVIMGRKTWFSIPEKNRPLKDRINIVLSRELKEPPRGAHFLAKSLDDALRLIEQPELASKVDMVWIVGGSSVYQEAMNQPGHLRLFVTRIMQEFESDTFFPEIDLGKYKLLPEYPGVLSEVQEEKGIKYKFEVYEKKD
# Protocol: CF1 male mice (~30 g) were implanted with 2×10^6 Ehrlich ascites tumor cells, intraperitoneally on Day 0. Compound I was suspended by homogenation in 0.05% polysorbate.80-water and administered intraperitoneally at 10 and 20 mg/kg for 9 days to determine its effectiveness for inhibition of tumor growth. Mice were sacrificed on Day 10, and the ascites fluid was collected from the peritoneal cavity. The volume and ascrit (packed cell volume) were determined for each animal and the percent inhibition of tumor growth was calculated. For the metabolic studies, mice were treated on Days 8 and 9 with 10 mg/kg of Compound I, intraperitoneally. […]
# Carbamyl phosphate synthetase activity was determined using the reaction medium of Kalman et al [Am. […] Citrulline formed from ornithine was measured at 490 nm by the method of Archibald [J. Biol. Chem., 156, 121 (1944)]. […] The ^14 CO2 generated in 15 min was trapped in 1M KOH and counted. Thymidylate synthetase activity was determined using a post-mitochondrial supernatant (9000 g×10 min) and 5 μCi of 5-^3 H-deoxyuridine monophosphate (14 Ci/mmol) according to the method of Kampf et al [ J. Med. Chem., 19, 903 (1976)]. ^14 C-Formate incorporation into purines was determined by the method of Spassova et al [Biochem. Pharmacol., 25, 923 (1976)] using 0.5 μCi of ^14 C-formic acid (52.0 mCi/mmol). […] The Rf value for xanthine monophosphate was scraped and counted. […]
substance,measurement,setting,value
{Cu[(CH3)3 N.BH2 CO2 ]2.(CH3)3 N.BH2 COOH} [Compound I],Mitochondrial Citrate Exchange,[1]; 50 μM,105 ± 6 Percent Control
same,Mitochondrial Citrate Exchange,[1]; 100 μM,104 ± 6 Percent Control
same,Mitochondrial Citrate Exchange,[1]; 200 μM,103 ± 7 Percent Control
same,dihydrofolate reductase inhibition,[2],not inhibited
